In ChEMBL document CHEMBL1122304, “Synthesis and antiallergy activity of 5-oxo-5H-thiazolo[2,3-b]quinazolinecarboxylic acids” (1983):

Legend:
Format in all cases: functional
[1] = test system: Rattus norvegicus; experiment: Antiallergic activity in the rat passive cutaneous anaphylaxis (PCA) test at 32 mg/kg upon peroral administration; conditions: route oral
[2] = test system: Rattus norvegicus; experiment: Antiallergic activity in the rat passive cutaneous anaphylaxis (PCA) test at 16 mg/kg upon intraperitoneal administration; conditions: ip
[3] = test system: Rattus norvegicus; experiment: Antiallergic activity in the rat passive cutaneous anaphylaxis (PCA) test upon peroral administration; conditions: po, read-out: ID50 (the source's name)
[4] = test system: Rattus norvegicus; experiment: Antiallergic activity in the rat passive cutaneous anaphylaxis (PCA) test upon intraperitoneal administration of 8 mg/kg of the compound; conditions: ip
[5] = test system: Rattus norvegicus; experiment: Antiallergic activity in the rat passive cutaneous anaphylaxis (PCA) test at 32 mg/kg upon peroral administration after 10-minute pretreatment time; conditions: route oral
[6] = test system: Rattus norvegicus; experiment: Antiallergic activity in the rat passive cutaneous anaphylaxis (PCA) test upon peroral administration;(range = 0.07-0.23); conditions: po, read-out: ID50 (the source's name)
[7] = test system: Rattus norvegicus; experiment: Antiallergic activity in the rat passive cutaneous anaphylaxis (PCA) test upon intraperitoneal administration of 16 mg/kg of the compound; conditions: ip
[8] = test system: Rattus norvegicus; experiment: Antiallergic activity in the rat passive cutaneous anaphylaxis (PCA) test upon peroral administration; (range = 0.08-0.18); conditions: po, read-out: ID50 (the source's name)
[9] = test system: Rattus norvegicus; experiment: Antiallergic activity in the rat passive cutaneous anaphylaxis (PCA) test upon peroral administration; (range = 2.14-29.01); conditions: po, read-out: ID50 (the source's name)
[10] = test system: Rattus norvegicus; experiment: Antiallergic activity in the rat passive cutaneous anaphylaxis (PCA) test at 32 mg/kg upon peroral administration with a 10-minute pretreatment time; conditions: route oral
[11] = test system: Rattus norvegicus; experiment: Antiallergic activity in the rat passive cutaneous anaphylaxis (PCA) test upon peroral administration; (range = 0.98-4.02); conditions: po, read-out: ID50 (the source's name)
[12] = test system: Rattus norvegicus; experiment: Antiallergic activity in the rat passive cutaneous anaphylaxis (PCA) test upon peroral administration; (range of 0.89-6.85); conditions: po, read-out: ID50 (the source's name)
[13] = test system: Rattus norvegicus; experiment: Antiallergic activity in the rat passive cutaneous anaphylaxis (PCA) test upon peroral administration; (range = 0.04-0.14); conditions: po, read-out: ID50 (the source's name)
[14] = test system: Rattus norvegicus; experiment: Antiallergic activity in the rat passive cutaneous anaphylaxis (PCA) test upon peroral administration; (range = 0.58-1.91); conditions: po, read-out: ID50 (the source's name)
[15] = test system: Rattus norvegicus; experiment: Antiallergic activity in the rat passive cutaneous anaphylaxis (PCA) test upon peroral administration; (range = 0.18-0.61); conditions: po, read-out: ID50 (the source's name)

CC(C)c1cc(C(C)C)c2nc3sc(C(=O)O)cn3c(=O)c2c1
inhibition in vivo at 32 mg/kg [1]: 19%
inhibition in vivo at 16 mg/kg [2]: 100%
ED50 [3]: > 10 mg/kg

O=C(O)c1cc(=O)c2c(OCC(O)COc3cccc4oc(C(=O)O)cc(=O)c34)cccc2o1 [CROMOLYN SODIUM]
inhibition in vivo at 8 mg/kg [4]: 46%
inhibition in vivo at 32 mg/kg [5]: 18%

CSc1ccc2nc3sc(C(=O)O)cn3c(=O)c2c1
inhibition in vivo at 32 mg/kg [1]: 87%
ED50 [6]: 0.12 mg/kg

O=C(O)c1ccc2nc3sccn3c(=O)c2c1
inhibition in vivo at 32 mg/kg [1]: 66%
inhibition in vivo at 16 mg/kg [7]: 62%
ED50 [3]: > 10 mg/kg

CC(C)c1cn2c(=O)c3cc(C(=O)O)ccc3nc2s1
inhibition in vivo at 32 mg/kg [1]: 100%
inhibition in vivo at 16 mg/kg [7]: 100%
ED50 [8]: 0.11 mg/kg

O=C(O)c1cn2c(=O)c3ccccc3nc2s1
inhibition in vivo at 16 mg/kg [7]: 80%

COc1cc2nc3sc(C(=O)O)cn3c(=O)c2cc1OC
inhibition in vivo at 16 mg/kg [7]: 89%

O=C(O)c1cn2c(=O)c3cc(C4CC4)ccc3nc2s1
ED50 [9]: 6.02 mg/kg
inhibition in vivo at 32 mg/kg [1]: 100%

C[S+]([O-])c1ccc2nc3sc(C(=O)O)cn3c(=O)c2c1 (stereo unspecified)
inhibition in vivo at 32 mg/kg [10]: 67%
inhibition in vivo at 16 mg/kg [7]: 55%
ED50 [11]: 1.82 mg/kg

CC(C)Cc1ccc2nc3sc(C(=O)O)cn3c(=O)c2c1
ED50 [12]: 2.12 mg/kg
inhibition in vivo at 16 mg/kg [7]: 62%
inhibition in vivo at 32 mg/kg [5]: 78%

Cc1cn2c(=O)c3cc(C(=O)O)ccc3nc2s1
inhibition in vivo at 32 mg/kg [1]: 79%
ED50 [3]: > 10 mg/kg

COc1ccc2nc3sc(C(=O)O)cn3c(=O)c2c1
inhibition in vivo at 32 mg/kg [1]: 78%
ED50 [13]: 0.07 mg/kg
inhibition in vivo at 16 mg/kg [7]: 100%

CCC(C)c1ccc2nc3sc(C(=O)O)cn3c(=O)c2c1 (stereo unspecified)
inhibition in vivo at 16 mg/kg [7]: 59%
ED50 [14]: 1.01 mg/kg
inhibition in vivo at 32 mg/kg [5]: 64%

CC(C)c1cc2c(=O)n3cc(C(=O)O)ccc3nc2s1
inhibition in vivo at 32 mg/kg [1]: 54%
inhibition in vivo at 16 mg/kg [2]: 89%

CC(C)c1ccc2nc3sc(C(=O)O)cn3c(=O)c2c1
inhibition in vivo at 32 mg/kg [1]: 86%
inhibition in vivo at 16 mg/kg [2]: 89%
ED50 [15]: 0.33 mg/kg
